Measurements as given in article PMC11420776 (RSC Advances, 2024).
“Also recorded” adds a separate entry of the source.

Assays:
M14 (melanoma) = assay: NCI 60-cell one-dose antiproliferative screen; type: cell-based, human; settings: one dose 10 μM
HS 578T (breast cancer) = assay: NCI 60-cell one-dose antiproliferative screen; type: cell-based, human; settings: one dose 10 μM
[1] = system: NCI-H322M (NSC lung cancer); assay: NCI 60-cell one-dose antiproliferative screen; type: cell-based, human; settings: one dose 10 μM
COLO-205 (colon cancer) = assay: NCI 60-cell one-dose antiproliferative screen; type: cell-based, human; settings: one dose 10 μM
UACC-62 (melanoma) = assay: NCI 60-cell one-dose antiproliferative screen; type: cell-based, human; settings: one dose 10 μM
[2] = system: A549/ATCC (NSC lung cancer); assay: NCI 60-cell one-dose antiproliferative screen; type: cell-based, human; settings: one dose 10 μM
[3] = MTT cytotoxicity assay, MCF10a; type: cell-based; settings: human, MCF10a normal mammary epithelial cells
MALME-3M (melanoma) = assay: NCI 60-cell one-dose antiproliferative screen; type: cell-based, human; settings: one dose 10 μM
[4] = system: 60 human tumor cell lines; assay: NCI 60-cell one-dose antiproliferative screen, whole panel; type: cell-based; settings: Homo sapiens, 60 cell, read-out: Mean inhibition (mean GI%)
ACHN (renal cancer) = assay: NCI 60-cell one-dose antiproliferative screen; type: cell-based, human; settings: one dose 10 μM
SN12C (renal cancer) = assay: NCI 60-cell one-dose antiproliferative screen; type: cell-based, human; settings: one dose 10 μM
[5] = system: MDA-MB-468 (breast cancer); assay: NCI 60-cell one-dose antiproliferative screen; type: cell-based, human; settings: one dose 10 μM
A498 (renal cancer) = assay: NCI 60-cell one-dose antiproliferative screen; type: cell-based, human; settings: one dose 10 μM
HCC-2998 (colon cancer) = assay: NCI 60-cell one-dose antiproliferative screen; type: cell-based, human; settings: one dose 10 μM
MCF7 cells [6] = assay: Annexin V/PI dual staining apoptosis assay; type: cell-based, human; settings: MCF7, 24 h, 4g at IC50 (0.56 μM)
SW-620 (colon cancer) = assay: NCI 60-cell one-dose antiproliferative screen; type: cell-based, human; settings: one dose 10 μM
HCT-116 (colon cancer) = assay: NCI 60-cell one-dose antiproliferative screen; type: cell-based, human; settings: one dose 10 μM
RPMI-8226 (leukemia) = assay: NCI 60-cell one-dose antiproliferative screen; type: cell-based, human; settings: one dose 10 μM
UACC-257 (melanoma) = assay: NCI 60-cell one-dose antiproliferative screen; type: cell-based, human; settings: one dose 10 μM
SF-295 (CNS cancer) = assay: NCI 60-cell one-dose antiproliferative screen; type: cell-based, human; settings: one dose 10 μM
[7] = system: NCI/ADR-RES (ovarian cancer); assay: NCI 60-cell one-dose antiproliferative screen; type: cell-based, human; settings: one dose 10 μM
RXF 393 (renal cancer) = assay: NCI 60-cell one-dose antiproliferative screen; type: cell-based, human; settings: one dose 10 μM
[8] = system: MDA-MB-231/ATCC (breast cancer); assay: NCI 60-cell one-dose antiproliferative screen; type: cell-based, human; settings: one dose 10 μM
[9] = system: NCI-H522 (NSC lung cancer); assay: NCI 60-cell one-dose antiproliferative screen; type: cell-based, human; settings: one dose 10 μM
U251 (CNS cancer) = assay: NCI 60-cell one-dose antiproliferative screen; type: cell-based, human; settings: one dose 10 μM
UO-31 (renal cancer) = assay: NCI 60-cell one-dose antiproliferative screen; type: cell-based, human; settings: one dose 10 μM
[10] = system: NCI-H460 (NSC lung cancer); assay: NCI 60-cell one-dose antiproliferative screen; type: cell-based, human; settings: one dose 10 μM
SF-268 (CNS cancer) = assay: NCI 60-cell one-dose antiproliferative screen; type: cell-based, human; settings: one dose 10 μM
PC-3 (prostate cancer) = assay: NCI 60-cell one-dose antiproliferative screen; type: cell-based, human; settings: one dose 10 μM
786-0 (renal cancer) = assay: NCI 60-cell one-dose antiproliferative screen; type: cell-based, human; settings: one dose 10 μM
MCF7 cells [11] = assay: Cell cycle analysis by flow cytometry; type: cell-based, human
CAKI-1 (renal cancer) = assay: NCI 60-cell one-dose antiproliferative screen; type: cell-based, human; settings: one dose 10 μM
EKVX (NSC lung cancer) = assay: NCI 60-cell one-dose antiproliferative screen; type: cell-based, human; settings: one dose 10 μM
Pim-1 kinase = Pim-1 kinase (Homo sapiens, UniProt P11309); assay: Pim-1 kinase inhibition assay; type: biochemical
Sequence of Pim-1 kinase (P11309 whole entry): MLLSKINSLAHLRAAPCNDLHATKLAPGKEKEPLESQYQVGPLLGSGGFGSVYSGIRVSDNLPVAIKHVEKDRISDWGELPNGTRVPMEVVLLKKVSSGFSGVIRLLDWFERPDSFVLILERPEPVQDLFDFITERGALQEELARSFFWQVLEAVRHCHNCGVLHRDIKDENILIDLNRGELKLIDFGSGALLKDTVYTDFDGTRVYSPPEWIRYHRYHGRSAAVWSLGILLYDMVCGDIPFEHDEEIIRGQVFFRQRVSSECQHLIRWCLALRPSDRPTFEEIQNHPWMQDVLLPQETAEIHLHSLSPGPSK

HT29 (colon cancer) = assay: NCI 60-cell one-dose antiproliferative screen; type: cell-based, human; settings: one dose 10 μM
TK-10 (renal cancer) = assay: NCI 60-cell one-dose antiproliferative screen; type: cell-based, human; settings: one dose 10 μM
p-PI3K = assay: Phosphorylated PI3K ELISA in MCF7 cells; type: cell-based, human; settings: 4g at its IC50 0.56 μM, compared to untreated MCF7 cells
OVCAR-8 (ovarian cancer) = assay: NCI 60-cell one-dose antiproliferative screen; type: cell-based, human; settings: one dose 10 μM
SNB-19 (CNS cancer) = assay: NCI 60-cell one-dose antiproliferative screen; type: cell-based, human; settings: one dose 10 μM
SF-539 (CNS cancer) = assay: NCI 60-cell one-dose antiproliferative screen; type: cell-based, human; settings: one dose 10 μM
MCF7 (breast cancer) = assay: NCI 60-cell one-dose antiproliferative screen; type: cell-based, human; settings: one dose 10 μM
KM12 (colon cancer) = assay: NCI 60-cell one-dose antiproliferative screen; type: cell-based, human; settings: one dose 10 μM
IGROV1 (ovarian cancer) = assay: NCI 60-cell one-dose antiproliferative screen; type: cell-based, human; settings: one dose 10 μM
[12] = system: NCI-H23 (NSC lung cancer); assay: NCI 60-cell one-dose antiproliferative screen; type: cell-based, human; settings: one dose 10 μM
MDA-MB-435 (melanoma) = assay: NCI 60-cell one-dose antiproliferative screen; type: cell-based, human; settings: one dose 10 μM
CCRF-CEM (leukemia) = assay: NCI 60-cell one-dose antiproliferative screen; type: cell-based, human; settings: one dose 10 μM
SK-MEL-28 (melanoma) = assay: NCI 60-cell one-dose antiproliferative screen; type: cell-based, human; settings: one dose 10 μM
[13] = MCF7, 4g at IC50 (0.56 μM), 24 h
[14] = MCF7, 4g at IC50 (0.56 μM), relative to DMSO control

COc1ccc(-c2nnc3ccc(NN=Cc4ccc(O)cc4)nn23)cc1 [Compound 4g, 4-((2-(3-(4-Methoxyphenyl)-[1,2,4]triazolo[4,3-b]pyridazin-6-yl)hydrazono)methyl)phenol]
GI% (M14 (melanoma)): 43.64%
GI% (HS 578T (breast cancer)): 53.18%
GI% [1]: 38.06%
GI% (COLO-205 (colon cancer)): 43.51%
GI% (UACC-62 (melanoma)): 41.19%
GI% [2]: 41.49%
IC50 at 72 h [3]: 10.7 ± 0.56 µM
GI% (MALME-3M (melanoma)): 35.83%
inhibition at 10 µM [4]: 55.8%
GI% (ACHN (renal cancer)): 56.52%
GI% (SN12C (renal cancer)): 57.71%
GI% [5]: 51.76%
GI% (A498 (renal cancer)): — (— GI% is below 15%)
GI% (HCC-2998 (colon cancer)): 85.07%
Apoptosis Early (MCF7 cells [6]): 25.16%
Apoptosis Late (MCF7 cells [6]): 18.13%
Necrosis (MCF7 cells [6]): 5.27%
increase in the percentage of total apoptosis (MCF7 cells [6]; compared to the control): 29.61 fold
GI% (SW-620 (colon cancer)): 32.85%
GI% (HCT-116 (colon cancer)): 72.71%
GI% (RPMI-8226 (leukemia)): 86.88%
GI% (UACC-257 (melanoma)): 17.70%
GI% (SF-295 (CNS cancer)): 56.41%
GI% [7]: 73.98%
GI% (RXF 393 (renal cancer)): 57.34%
GI% [8]: 39.44%
GI% [9]: 53.35%
GI% (U251 (CNS cancer)): 32.41%
GI% (UO-31 (renal cancer)): 69.74%
GI% [10]: 55.73%
GI% (SF-268 (CNS cancer)): 64.19%
GI% (PC-3 (prostate cancer)): 59.52%
GI% (786-0 (renal cancer)): 77.10%
%G0-G1 (MCF7 cells [11]; [13]): 52.94%
%G2/M (MCF7 cells [11]; [13]): 4.13%
drop in the cell population at G0/G1 phase (MCF7 cells [11]; [14]): 10.48%
drop in the cell population at G2/M phase (MCF7 cells [11]; [14]): 46.84%
increase in the proportion of cells in the S phase (MCF7 cells [11]; MCF7, 4g at IC50 (0.56 μM), versus control (DMSO)): 1.29 fold
cell cycle arrest phase (MCF7 cells [11]; MCF7 cells): arrest in the S stage of the cell cycle; also recorded: arrest in the proliferation of MCF7 cells in the S phase; also recorded: ceased the proliferation of MCF-7 cancer cells in the S phase
GI% (CAKI-1 (renal cancer)): 78.54%
GI% (EKVX (NSC lung cancer)): 62.20%
IC50 (Pim-1 kinase): 0.283 ± 0.01 µM
GI% (HT29 (colon cancer)): — (— GI% is below 15%)
GI% (TK-10 (renal cancer)): 61.05%
inhibition of PI3K phosphorylation (p-PI3K): 55.5%
GI% (OVCAR-8 (ovarian cancer)): 54.60%
GI% (SNB-19 (CNS cancer)): 32.46%
GI% (SF-539 (CNS cancer)): 63.61%
GI% (MCF7 (breast cancer)): 86.77%
GI% (KM12 (colon cancer)): 71.51%
GI% (IGROV1 (ovarian cancer)): 60.66%
GI% [12]: 67.47%
GI% (MDA-MB-435 (melanoma)): 54.20%
GI% (CCRF-CEM (leukemia)): 85.88%
GI% (SK-MEL-28 (melanoma)): 30.86%
